pIC50: −log10 of the molar value.
Tests used:
Calu-1 = experiment: Cancer cell line proliferation assay (CellTiter-Glo), Calu-1; type: cell-based; settings: Homo sapiens, 144 h, Lung (squamous), NF2 HOM DEL/LATS2 HOM DEL, 6 days
Protocol: (§1) All the cell lines are cultured in the media supplemented with 10-20% fetal bovine serum, in the temperature of 37° C., 5% CO2 and 95% humidity. The indicated cell lines (all sourced from the ATCC cell culture collection) are plated in 96-Well Flat Clear Bottom Black Polystyrene TC-Treated Microplates with the final cell density of 4×10^3 cells/well. Cells are incubated overnight and then compounds, dissolved in DMSO, are added in dose-response. Cells are incubated with compound dilutions for another 6 days. Cell viability is quantitated using CellTiter-Glo reagent (Perkin Elmer) and measured using an EnVision Multi Label Reader.

[1] = system: YAP/TAZ-TEAD transcription; experiment: Reporter gene assay for measuring the inhibition of YAP/TAZ-TEAD transcription (TEAD-responsive element luciferase reporter in Hek293T cells); type: cell-based; settings: Homo sapiens, HEK-293T, 24 h, Hek293T cells transiently transfected with TEAD-responsive element luciferase reporter; 24 hours incubation
Summary of the method: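 Hek293T cells transiently transfected with a TEAD-responsive element luciferase reporter, plated onto pre-diluted compounds and incubated 24 h at 37 °C/5% CO2. Luminescence read after SteadyLite addition; % inhibition from RLU relative to vehicle (0%) and a positive control inhibitor (100%), giving IC50.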

RL95-2 = experiment: Cancer cell line proliferation assay (CellTiter-Glo), RL95-2; type: cell-based; settings: Homo sapiens, 144 h, Endometrial (adeno-squamous), LATS1 HOM DEL, 6 days
Protocol: as §1

[2] = system: selected tumor cell lines; experiment: Cancer cell line proliferation assays, whole panel of selected tumor cell lines; type: cell-based; settings: cancer cell lines of Table 5
Protocol: as §1

NCI-H226 tumor cells = experiment: In vivo efficacy in a subcutaneous human lung cancer xenograft model (NCI-H226 mesothelioma); set-up: species or system Female BALB/c Nude Mice; settings: 100 mg/kg, p.o., BID × 21 days
Protocol: The NCI-H226 tumor cells were maintained in vitro with RPMI-1640 medium supplemented with 10% fetal bovine serum at 37° C. in an atmosphere of 5% CO2 in air. The cells in exponential growth phase were harvested and the cell numbers were quantitated by hemocytometer and cell viability was quantified by Trypan Blue counting before tumor inoculation. Balb/c nude mouse were inoculated with subcutaneously in the right front flank regions with 1×10^7 of NCI-H226 tumor cells in 0.1 mL of PBS mixed with 0.1 ml of Matrigel (1:1) for tumor development. All animals were randomized based on the tumor sizes as well as body weights and randomly allocated to the different study groups (8 mice per group). The randomization started when the mean tumor size at the right rear flank region had reached approximately 172 mm^3. The date of randomization was denoted as Day 0.
Cpd. No. 084 was formulated in Vehicle 1 (PEG400 (40%)+PG (30%)+WFI (30%)) as a 10 mg/ml solution, and dosed orally, twice daily, using 10 μl/g (final dose is 100 mg/kg) for 21 days. Cpd. No. 001 was formulated in Vehicle 2 (PEG400 (65%)+PG (20%)+WFI (15%)) as a 10 mg/ml solution, and dosed orally, twice daily, using 10 μl/g (final dose is 100 mg/kg) for 21 days. After tumor cell inoculation, the animals were checked daily for morbidity and mortality. At the time of routine monitoring, the animals were checked for any effects of tumor growth and treatments on behavior such as mobility, food and water consumption, body weight gain/loss (body weight was measured at least two times per week), and any other abnormalities. Mortality and observed clinical signs were recorded for individual animals. Tumor volumes were measured at least two times weekly in two dimensions using a caliper, and the volume was expressed in mm^3 using the formula: V=(L×W×W)/2, where V is tumor volume, L is tumor length (the longest tumor dimension) and W is tumor width (the longest tumor dimension perpendicular to L).
Tumor growth inhibition (TGI) was used as an indicator of antitumor activities, and was calculated from the relative tumor volumes of the control and treatment groups due to the variance of tumor volumes among groups at Day 0. TGI (%)=(1-T/C)×100%; T/C=MTVt/MTVc, MTVt: mean tumor volume in the treatment groups at a specific measurement day, MTVc: mean tumor volume in the control group at a specific measurement day. Moreover, the difference of TGIs between control and treatment groups was analyzed at a measurement day when all or most of the mice in the control groups were alive. In addition, body weight changes over time in each group were used as an index to evaluate the tolerability of test drugs, and were calculated from the average percentage of body weight changes of each individual mouse relative to their initial body weight at randomization using the following formula: group BW %=mean of ((BWt−BW0)/BW0×100%), BWt: body weight at Day t, BW0: body weight at Day 0.
To compare relative tumor volumes of different groups at a pre-specified day, we first used Bartlett's test to check the assumption of homogeneity of variance across all groups. When the p-value of Bartlett's test is >0.05, we run one-way ANOVA to test overall equality of means across all groups. If the p-value of the one-way ANOVA is <0.05, we further perform post hoc testing by running Tukey's HSD (honest significant difference) tests for all pairwise comparisons, and Dunnett's tests for comparing each treatment group with the vehicle group. When the p-value of Bartlett's test is <0.05, we run Kruskal-Wallis test to test overall equality of medians among all groups. If the p-value of the Kruskal-Wallis test is <0.05, we further perform post hoc testing by running Conover's non-parametric test for all pairwise comparisons or for comparing each treatment group with the vehicle group, both with single-step p-value adjustment. All tests were two-sided unless otherwise specified, and p-values<0.05 were regarded as statistically significant. […]

[3] = day 20, against the compound's own vehicle group

GI50 (Calu-1): 120 nM
pIC50 [1]: > 6.00
GI50 (RL95-2): 50 nM
Compound: C=CC(=O)NC1Cc2ccccc2N(c2ccc(C(F)(F)F)cc2)C1 (centres unmarked) [compound 001, N-(1-(4-(trifluoromethyl)phenyl)-1,2,3,4-tetrahydroquinolin-3-yl)acrylamide]
inhibitory activity on the cell proliferation of the selected tumor cell lines [2]: strong inhibitory activity
anti-tumor activity in the xenograft mesothelioma model (NCI-H226 tumor cells): highly statistically significant and strong anti-tumor activity
Mean Tumor Volume (mm^3) on day 20 (NCI-H226 tumor cells; day 20, 8 mice per group): 217.26 ± 45.21 (8) mm^3
T/C (%) (NCI-H226 tumor cells; [3]): 49.62%
TGI (%) (NCI-H226 tumor cells; [3]): 50.38%

Source: patent US20240025856A1, “1,2,3,4-TETRAHYDROQUINOLINE DERIVATIVES AS INHIBITORS OF THE YAP/TAZ-TEAD ACTIVATION FOR TREATING CANCER” (KATHOLIEKE UNIVERSITEIT LEUVEN, priority 2020, published 2024)
